Test results published in publication PMC8027564, “A novel luminescence-based β-arrestin recruitment assay for unmodified receptors” (The Journal of Biological Chemistry, 2021).
Structures can show the parent of a compound that is named as a salt.

Experiments:
[1] = test system: Hek293 cells without cotransfection of any receptor; assay: MeNArC and EeNArC negative controls, Hek293 without cotransfection of any receptor; format: cell-based, human; details: 10 µM agonist
AT1R [2] = biological target: T1, AT1R (Homo sapiens, UniProt P30556); assay: MeNArC β-arrestin membrane recruitment assay, unmodified AT1R, Hek293; format: cell-based
T1 construct: signal peptide (N); expressed in transfected cells; host or cells: Hek293
T1 sequence (P30556 1-359): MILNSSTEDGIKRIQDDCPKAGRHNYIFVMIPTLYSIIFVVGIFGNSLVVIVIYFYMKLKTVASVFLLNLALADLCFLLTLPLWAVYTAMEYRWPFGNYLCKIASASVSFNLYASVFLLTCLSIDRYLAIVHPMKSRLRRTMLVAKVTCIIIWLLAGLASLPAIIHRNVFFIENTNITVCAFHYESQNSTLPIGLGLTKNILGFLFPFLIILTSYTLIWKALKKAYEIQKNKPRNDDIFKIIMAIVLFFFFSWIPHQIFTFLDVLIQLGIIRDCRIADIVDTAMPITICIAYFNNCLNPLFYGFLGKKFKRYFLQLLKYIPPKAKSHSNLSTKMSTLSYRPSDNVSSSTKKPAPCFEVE

AT1R [3] = biological target: T1, AT1R; assay: EeNArC β-arrestin early endosome recruitment assay, unmodified AT1R, Hek293; format: cell-based; details: 450 mM sucrose, Ang II, early endosomes
D2R = biological target: T2, D2R (Homo sapiens, UniProt P14416); assay: cell-based; format: cell-based
T2 construct: expressed in transfected cells; host or cells: Hek293 (D2R cotransfected with GRK2, MeN and ArC)
T2 sequence (P14416 1-414 isoform P14416-2): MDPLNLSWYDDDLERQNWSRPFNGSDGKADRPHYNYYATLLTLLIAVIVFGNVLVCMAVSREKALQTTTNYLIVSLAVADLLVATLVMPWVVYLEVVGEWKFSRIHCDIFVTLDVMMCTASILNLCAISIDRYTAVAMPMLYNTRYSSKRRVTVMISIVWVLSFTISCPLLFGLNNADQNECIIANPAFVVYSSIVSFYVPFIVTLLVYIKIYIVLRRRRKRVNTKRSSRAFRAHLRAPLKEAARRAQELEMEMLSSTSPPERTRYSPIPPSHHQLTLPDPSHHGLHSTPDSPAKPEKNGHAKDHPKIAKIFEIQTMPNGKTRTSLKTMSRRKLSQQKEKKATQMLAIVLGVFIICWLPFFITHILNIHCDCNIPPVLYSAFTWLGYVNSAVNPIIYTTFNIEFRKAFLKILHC

FKBP / FRB = biological target: T3, FKBP / FRB (UniProt P42345+Q62658); assay: rapamycin-induced dimerization of FKBP and FRB fused to the N- and C-terminal NanoLuc fragments; format: cell-based; details: 50 nM rapamycin; Hek293 cotransfected with both fragments
T3 construct: expressed in transfected cells; host or cells: Hek293
T3 sequence (Q62658 3-108): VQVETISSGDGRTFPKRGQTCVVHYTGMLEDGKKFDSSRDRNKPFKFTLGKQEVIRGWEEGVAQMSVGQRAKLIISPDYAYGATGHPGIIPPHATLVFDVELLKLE
T3 sequence (P42345 2012-2144): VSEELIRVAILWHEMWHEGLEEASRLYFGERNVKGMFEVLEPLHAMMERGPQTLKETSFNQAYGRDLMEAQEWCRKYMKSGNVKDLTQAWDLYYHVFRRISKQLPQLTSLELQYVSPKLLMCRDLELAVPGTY

MOR 11S/T-A = assay: MeNArC β-arrestin2 recruitment assay, MOR 11S/T-A mutant, Hek293; format: cell-based
MOR = MOR (Homo sapiens, UniProt P35372); format: cell-based
MOR, sequence (P35372 whole entry): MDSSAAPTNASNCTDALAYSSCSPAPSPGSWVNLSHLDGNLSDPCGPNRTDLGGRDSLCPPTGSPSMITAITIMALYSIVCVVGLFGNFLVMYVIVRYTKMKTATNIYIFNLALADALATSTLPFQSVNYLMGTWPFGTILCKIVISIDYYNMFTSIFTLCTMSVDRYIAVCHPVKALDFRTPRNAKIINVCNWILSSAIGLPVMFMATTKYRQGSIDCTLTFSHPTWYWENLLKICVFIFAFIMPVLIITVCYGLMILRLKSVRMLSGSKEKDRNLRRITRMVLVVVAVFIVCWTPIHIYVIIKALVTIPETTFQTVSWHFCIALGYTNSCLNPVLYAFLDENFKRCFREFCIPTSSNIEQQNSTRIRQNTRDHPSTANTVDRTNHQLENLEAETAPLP
MOR, sequence (P32121 whole entry partner): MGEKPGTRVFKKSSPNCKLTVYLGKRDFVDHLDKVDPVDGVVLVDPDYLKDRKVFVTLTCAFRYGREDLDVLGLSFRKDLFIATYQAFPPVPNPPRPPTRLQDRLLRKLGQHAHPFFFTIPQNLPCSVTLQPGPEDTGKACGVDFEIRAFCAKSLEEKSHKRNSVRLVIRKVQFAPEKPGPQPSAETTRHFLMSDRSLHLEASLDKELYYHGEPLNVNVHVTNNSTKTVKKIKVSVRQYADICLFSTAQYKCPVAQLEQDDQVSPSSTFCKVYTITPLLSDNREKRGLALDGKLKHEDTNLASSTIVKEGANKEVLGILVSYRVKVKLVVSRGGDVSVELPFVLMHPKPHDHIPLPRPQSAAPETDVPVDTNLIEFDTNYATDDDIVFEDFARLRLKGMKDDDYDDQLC

With `CC[C@H](C)[C@H](NC(=O)[C@H](Cc1ccc(O)cc1)NC(=O)[C@@H](NC(=O)[C@H](CCCNC(=N)N)NC(=O)[C@@H](N)CC(=O)O)C(C)C)C(=O)N[C@@H](Cc1c[nH]cn1)C(=O)N1CCC[C@H]1C(=O)N[C@@H](Cc1ccccc1)C(=O)O` [Ang II, Angiotensin II] the “response in MeNArC and EeNArC assays without receptor” value [1] was “no response was observed”.
For `OC[C@H]1O[C@@](CO)(O[C@H]2O[C@H](CO)[C@@H](O)[C@H](O)[C@H]2O)[C@@H](O)[C@@H]1O` [sucrose], the “effect of sucrose on agonist response” value (AT1R [2]; 450 mM sucrose, Ang II response, plasma membrane) was “no effect on agonist response” and the “effect of sucrose on agonist effect” value (AT1R [3]) was “dramatically blunted”.
In the case of `CCN(CC)C(=O)N[C@H]1C[C@@H]2c3cccc4[nH]cc(c34)C[C@H]2N(C)C1` [terguride, Terguride], the EC50 (D2R) is reported as 9.55 nM and the “efficacy compared with dopamine” value (D2R) is reported as 24%.
`CCCc1nc(C(C)(C)O)c(C(=O)O)n1Cc1ccc(-c2ccccc2-c2nnn[nH]2)cc1` [olmesartan] was tested, and the “reversal of agonist-induced β-arrestin recruitment by antagonist added after agonist” value (AT1R [2]; 0.1 μM Ang II pretreatment, absence or presence of sucrose) was “could not be reversed”.
For `NCCc1ccc(O)c(O)c1` [dopamine, Dopamine hydrochloride], the “response in MeNArC and EeNArC assays without receptor” value [1] was “no response was observed”.
`CCN1CCCC1CNC(=O)c1cc(S(N)(=O)=O)ccc1OC` (stereo not shown) [sulpiride] was tested, and the “effect of antagonist on agonist-induced luminescence” value (D2R) was “strong decay in luminescence down to baseline”.
With `CCCN1CCCC(c2cccc(O)c2)C1` (stereo not shown) [PPP, (3-hydroxyphenyl)-N-propylpiperidine] the “efficacy compared with dopamine” value (D2R) was 10%.
For `CC(C)C[C@H]1C(=O)N2CCC[C@H]2[C@]2(O)O[C@](NC(=O)[C@@H]3C=C4c5cccc6[nH]c(Br)c(c56)C[C@H]4N(C)C3)(C(C)C)C(=O)N12` [bromocriptine], the EC50 (D2R) was 66.1 nM and the “efficacy compared with dopamine” value (D2R) was 46%.
`CO[C@H]1C[C@@H]2CC[C@@H](C)[C@@](O)(O2)C(=O)C(=O)N2CCCC[C@H]2C(=O)O[C@H]([C@H](C)C[C@@H]2CC[C@@H](O)[C@H](OC)C2)CC(=O)[C@H](C)/C=C(\C)[C@@H](O)[C@@H](OC)C(=O)[C@H](C)C[C@H](C)/C=C/C=C/C=C/1C` [rapamycin] was tested, and the “increase of basal luminescence signal by addition of rapamycin” value (FKBP / FRB) was roughly 30 fold.
In the case of `C[C@@H](NC(=O)[C@@H](N)Cc1ccc(O)cc1)C(=O)NCC(=O)N(C)[C@@H](Cc1ccccc1)C(=O)NCCO` [DAMGO, [D-Ala^2, N-MePhe^4, Gly-ol]-enkephalin], the pEC50 ± SD (MOR 11S/T-A; MOR 11S/T-A, β-arrestin2) is reported as 6.82 ± 0.19, the “efficacy for MOR 11S/T-A compared with WT MOR” value (MOR 11S/T-A; from fold changes) is reported as 65% and the “response in MeNArC and EeNArC assays without receptor” value [1] is reported as “no response was observed”. It also gave an EC80 (MOR) of 60 nM.
